From patent US11351134B2, “Small molecule agents, compositions, and formulations, for internal use, displaying inhibitory activity against gram-positive and/or gram-negative organisms” (NATUREZA, INC., priority 2017, dated 2022)
Like-named read-outs stand apart in the source and are kept apart here.

How the values were obtained:
S. epidermidis = test: Broth microdilution MIC of lecithin/chitosan particle compositions; assay type: cell-based; details: for MIC: Staphylococcus epidermidis
Procedure: (§1) Initially, to determine basic characteristics, each active component was separately mixed, generally under agitated conditions, with water, and each was miscible with water. Each, after being mixed with water, was tested in a broth microdilution assay, against a variety of bacteria using amounts of the each of the lauric acid derivatives, ranging from about 0.0009 wt. % to about 8 wt. %. The bacteria included Escherichia coli, and Staphylococcus aureus (including MRSA strains). The minimum inhibitory concentration (MIC) needed to prevent growth of the target bacteria was evaluated based on a method published by Clinical Laboratory Standards Institute (CLSI), broth microdilution method M-07 (M07). […] Each of the samples containing one of the lauric acid derivatives was compared with a positive control, decanoic acid.
(§2) For TABLES 1 to 3, compositions were generally prepared as described above, and as further outlined in this paragraph. For these examples, the active component, as a lauric acid derivative or lauric acid, was suspended in an organic solvent, chloroform, and then mixed with water, under robust agitation. The amount of water to the amount of chloroform was at least about 2:1, and could be as high as 10:1. Chloroform was then evaporated (e.g., under vacuum using a freeze dryer). After removal of the chloroform, a 2.2% lecithin solution in an acetate buffer (e.g., 98 mM acetic acid and 2 mM sodium acetate) was prepared and added, so the final amount of the active component was about 1 part active component mixture and about 9 parts of the 2.2% lecithin solution. Of course, it is noted that other ranges to achieve final amount of the active component as described above (e.g., active component mixture and lecithin solution) may also be utilized. Cholesterol could also be optionally added. The mixture of lecithin and the active component was mixed and sonicated, and then a solution of about 1.5% chitosan was added. Thereafter, the entirety of the mixture containing the lecithin and the active component was further blended, in which a final ratio was about 1 part active component to about 9 parts of the 2.2% lecithin solution to about 10 parts of the 1.5% chitosan solution. The pH was then varied, to a pH of 5, or a pH of 7, or a pH of 9. In some mixtures having a pH of 7, a chemical agent imparting a positive charge to the chitosan was included in a form of glycol chitosan. In these tests, the chemical agent used was glycol. In these examples, the amount of chemical agent, glycol was about one molecule glycol moiety to one molecule chitosan sacharide unit; higher amounts of glycol moieties are also acceptable, while lower amounts of glycol moieties were often found to decrease overall inhibitory activity associated with a composition when formed and tested in vitro. It is noted that negatively charged chitosan containing particles were prepared. […] After mixing, the mixtures could each be filtered through a […] filter. In some tests, the mixtures were sonicated before filtering. Sonication produced small particles. In some studies, particles were freeze dried as a powder (generally, after mixing, sonicating and filtering).
(§3) The positive controls were prepared and evaluated in a similar manner. All prepared samples were tested using a broth microdilution test.

E. coli = test: as above; assay type: cell-based; details: for MIC: Escherichia coli; for MIC (mg/ml) for E. coli (chitosan prep. mixture was at pH 5 or at pH 7): prep. mixture pH 5 or pH 7
Procedure: as §1, §2, §3

Escherichia coli = test: Broth microdilution (CLSI M07) of active component mixed with water only; assay type: cell-based; details: active component mixed with water only (miscible state); about 0.0009 wt. % to about 8 wt. %
Procedure: as §1

[1] = tested on: Staphylococcus aureus (including MRSA strains); test: as above; assay type: cell-based; details: active component mixed with water only (miscible state); about 0.0009 wt. % to about 8 wt. %
Procedure: as §1

[2] = tested on: representative Gram-positive pathogens and yeast; test: Broth microdilution of lecithin/chitosan compositions, sonicated and/or filtered; assay type: cell-based; details: composition with lecithin and chitosan
Source text: In a further preparation, lauric acid derivative, 12-aminododecanoic acid or 12-amino-1-dodecanoic acid methyl ester, was suspended individually (and independently) in an organic solvent, chloroform, and mixed with water, generally under agitated conditions. Here, for each sample, the amount of water to the amount of chloroform was at least 2:1, and was as high as 10:1. This was followed by chloroform evaporation, generally under vacuum using a freeze dryer. After removal of the chloroform, a lecithin solution was added to each sample. The lecithin was in a solution of acetic acid (e.g., 98 mM acetic acid and 2 mM sodium acetate), in which the amount of lecithin in solution was between about 1% to 5%. With addition of lecithin, each sample mixture contained up to about 4.8% lecithin (or generally about 5% or less), and up to about 7.8% of one of the lauric acid derivatives (or generally about 8% or less). pH of the solution was neutral. It is noted that the lecithin should be in a suitable form (e.g., solution or granules) acceptable for internal utilization (e.g., pharmaceutical grade). The lecithin may also include cholesterol, or other lecithin variants as described above, with similar results. Chitosan was then added to each of the samples, and each sample was then independently sonicated, followed by independent sterilization by high pressure filtration. […]

[3] = tested on: Gram-positive pathogens and Gram-negative pathogens; test: In vitro inhibitory activity of chitosan- or carrier-containing particles; assay type: cell-based
Source text: as §2, §3
This also occurs when the chitosan- or carrier-containing particle includes an active component that has a log P value that is less than 4 and includes a methyl and/or ethyl side chain (e.g., 12-amino-1-dodecanoic acid methyl ester). […]

[4] = tested on: gram-positive organisms, Streptococcus group A and Streptococcus beta-hemolytic non-A, and S. aureus, as well as Candida; details: background reports; free acid or ester used as such, in vitro/topical; cited from earlier work
[5] = assay type: in vivo; details: mice, oral capsules approximately 4 mg active component in chitosan-containing particles, three times per day for seven days
Source text: Laboratory trials have shown that no resistance has developed in pathogens exposed to the compositions described herein, even with long term, repeated exposure (data not shown). In addition, no intrinsic resistance can or has been detected in target pathogens. […] A placebo group is also included, in which a group of 10 mice are given a placebo set of capsules, orally, three times per day and continued for seven days, each of the placebo set of capsules containing similarly prepared chitosan-containing particles without an active component, the preparation being generally as described herein. Initial mice have been infected with Salmonella typhimurium prior to oral delivery of one of the set of capsules. The capsules may be vegetable capsules. The capsules may have an enteric coating. For delivery, a formulation may be prepared in a manner understood in the relevant art. For delivery, a formulation may be in at least any one or more of the following forms: liquid, capsule, dried powder, mist, and the like. For delivery, the formulation will contain pharmaceutical grade materials, including one or more excipients and or fillers for internal and/or topical delivery in sufficient amounts known to those of skill in the relevant art. Flavors, colors, sugars, sugar-substitutes, and the like may also be included in any of the formulations, as is understood to those of skill in the relevant art.

[6] = Table 3, lecithin/chitosan particle composition, prep. mixture pH 5 or pH 7, maximum concentration tested 10 mg/ml
[7] = Table 3, lecithin/chitosan particle composition, prep. mixture pH 5 or pH 7, maximum concentration tested 10 mg/ml, read-out: MIC (mg/ml) S. epidermidis (chitosan prep. mixture at pH 5 or at pH 7)
[8] = lecithin/chitosan particle composition, maximum concentration tested 10 mg/ml
[9] = lecithin/chitosan particle composition, prep. mixture pH 5 or pH 7, maximum concentration tested 10 mg/ml, read-out: MIC (mg/ml) for S. epidermidis (chitosan prep. mixture was at pH 5 or at pH 7)
[10] = synthesis (with chitosan) at pH 7 with positively charged chitosan

Molecule: CCCCCCCCCCCC(=O)OCC(O)CO (racemic) [1-lauroyl-rac-glycerol]
- MIC (S. epidermidis; read-out: MIC (mg/ml) S. epidermidis (chitosan prep. mixture at pH 5 or at pH 7)): 10 mg/mL

Molecule: CCCCCCCCCC(=O)CC(=O)NC1CCCCC1=O (stereo not drawn) [3-oxo-N-(2-oxocyclohexyl) dodecanamide]
- MIC (mg/ml) S. epidermidis (chitosan prep. mixture at pH 5 or at pH 7) (S. epidermidis; [6]): 10 mg/ml

Molecule: CCCCCCCCCCCC(=O)Oc1ccc([N+](=O)[O-])cc1 [4-nitrophenyl dodecanoate]
- MIC (S. epidermidis; [7]): 10 mg/mL

Molecule: O=C(O)CCCCCCCCCCCNc1ccc([N+](=O)[O-])c2nonc12 [12-(7-nitrobenzofurazan-4-ylamino) dodecanoic acid]
- MIC (S. epidermidis; [7]): 10 mg/mL

Molecule: NCCCCCCCCCCCC(=O)O [12-aminododecanoic acid]
- MIC (E. coli; lecithin/chitosan particle composition, prep. mixture pH 9, maximum concentration tested 10 mg/ml, read-out: MIC (mg/ml) for E. coli (chitosan prep. mixture was at pH 9)): 10 mg/mL
- MIC (E. coli; lecithin/glycol chitosan particle composition, prep. mixture pH 7, maximum concentration tested 10 mg/ml, read-out: MIC (mg/ml) for E. coli (chitosan prep. mixture was at pH 7 with glycol chitosan)): 10 mg/mL
- MIC (mg/ml) for E. coli (chitosan prep. mixture was at pH 5 or at pH 7) (E. coli; [8]): — (no inhibitory activity)
- MIC (S. epidermidis; [9]): 10 mg/mL
- Inhibitory activity against Gram-negative bacteria (e.g., E. coli) (Escherichia coli): does not, in the miscible state, demonstrate inhibitory activity
- Inhibitory activity against Gram-positive bacteria (e.g., S. aureus) [1]: does not, in the miscible state, demonstrate inhibitory activity
- Growth inhibitory activity against representative Gram-positive pathogens and yeast [2]: exhibited growth inhibitory activity
- Inhibitory activity against both Gram-positive pathogens and Gram-negative pathogens [3, 10]: stronger inhibitory activity as well as broad spectrum activity

Molecule: CCCCCCCCCCCC(=O)OCc1ccccc1 [benzyl laurate]
- MIC (S. epidermidis; [7]): 10 mg/mL

Molecule: CCCCCCCCCCCC(=O)OCCCC [butyl laurate]
- MIC (S. epidermidis; [7]): 10 mg/mL

Molecule: CCCCCCCCCCCC(=O)OCC [ethyl laurate]
- Inhibitory activity reported in the literature [4]: inactive

Molecule: CCCCCCCCCCCC(=O)OCCCCCC [hexyl laurate]
- MIC (S. epidermidis; [7]): 10 mg/mL

Molecule: CCCCCCCCCCCC(=O)OCCC(C)C [isoamyl laurate]
- MIC (S. epidermidis; [7]): 10 mg/mL

Molecule: CCCCCCCCCCCC(=O)OC(C)C [isopropyl laurate]
- MIC (S. epidermidis; [7]): 10 mg/mL

Molecule: CCCCCCCCCCCC(=O)O [lauric acid, dodecanoic acid]
- Inhibitory activity reported in the literature [4]: weak inhibitory activity

Molecule: CCCCCCCCCCCC(=O)OC [methyl laurate]
- Inhibitory activity reported in the literature [4]: ineffective

Molecule: CCCCCCCCCCCC(=O)OCC(O)CO (stereo not drawn) [monolaurin]
- MIC (mg/ml) S. epidermidis (chitosan prep. mixture at pH 5 or at pH 7) (S. epidermidis; [6]): 10 mg/ml

Molecule: CCCCCCCC(=O)O [octanoic acid, reference compound]
- MIC (mg/ml) for E. coli (chitosan prep. mixture was at pH 5 or at pH 7) (E. coli; [8]): — (no inhibitory activity)
- Inhibitory activity against representative Gram-negative bacteria (E. coli; particulated compositions manipulated to impart positivity (glycol chitosan at neutral pH, or prepared at pH 9)): not found to exhibit inhibitory activity
- MIC (S. epidermidis; [7]): 10 mg/mL
- MIC (S. epidermidis; [9]): 10 mg/mL

Molecule: CCCCCCCCCCCC(=O)OCCCCC [pentyl laurate]
- MIC (S. epidermidis; [7]): 10 mg/mL

Molecule: sucrose monolaurate
- MIC (mg/ml) for E. coli (chitosan prep. mixture was at pH 5 or at pH 7) (E. coli; [8]): — (no inhibitory activity)
- MIC (mg/ml) for E. coli (chitosan prep. mixture was at pH 9) (E. coli; lecithin/chitosan particle composition, prep. mixture pH 9, maximum concentration tested 10 mg/ml): 10 mg/ml
- MIC (mg/ml) for E. coli (chitosan prep. mixture was at pH 7 with glycol chitosan) (E. coli; lecithin/glycol chitosan particle composition, prep. mixture pH 7, maximum concentration tested 10 mg/ml): 10 mg/ml
- MIC (mg/ml) for S. epidermidis (chitosan prep. mixture was at pH 5 or at pH 7) (S. epidermidis; lecithin/chitosan particle composition, prep. mixture pH 5 or pH 7, maximum concentration tested 10 mg/ml): 10 mg/ml
- Inhibitory activity against both Gram-positive pathogens and Gram-negative pathogens [3, 10]: stronger inhibitory activity as well as broad spectrum activity
- Inhibitory activity against both Gram-positive pathogens and Gram-negative pathogens ([3]; synthesis (with chitosan) at pH 9): stronger inhibitory activity as well as broad spectrum activity
- Safety in animal trials [5]: no safety concerns
